Test results published in PMC7580763, “Novel insights on saccharin- and acesulfame-based carbonic anhydrase inhibitors: design, synthesis, modelling investigations and biological activity evaluation” (Journal of Enzyme Inhibition and Medicinal Chemistry, 2020).
Where two headings read alike, the source gives them in different places.

Columns and labels:
Assay type in all cases: biochemical
hCA I = hCA I (Homo sapiens, UniProt P00915); assay: CA inhibition, stopped-flow CO2 hydrase assay, hCA I
Experimental: (§1) An Applied Photophysics stopped-flow instrument has been used for assaying the CA-catalyzed CO2 hydration activity. […] The initial rates of the CA-catalysed CO2 hydration reaction were followed for a period of 10−100 s. The CO2 concentrations ranged from 1.7 to 17 mM for the determination of the kinetic parameters and inhibition constants. […] The uncatalyzed rates were determined in the same manner and subtracted from the total observed ones. Stock solutions of each inhibitor (0.1 mM) were prepared in distilled − deionized water and dilutions up to 0.01 nM were done thereafter with distilled − deionized water. Inhibitor and enzyme solutions were preincubated together for 15 min at room temperature prior to assay to allow for the formation of the E−I complex. The inhibition constants were obtained by nonlinear least-squares methods using the Cheng-Prusoff equation and represent the mean from at least three different determinations. […] Human CA isoforms were recombinant enzymes obtained in-house as reported earlier.

hCA II = hCA II (Homo sapiens, UniProt P00918); assay: CA inhibition, stopped-flow CO2 hydrase assay, hCA II
Experimental: as §1

hCA IX = hCA IX (Homo sapiens, UniProt Q16790); assay: CA inhibition, stopped-flow CO2 hydrase assay, hCA IX
Experimental: as §1

hCA XII = hCA XII (Homo sapiens, UniProt O43570); assay: CA inhibition, stopped-flow CO2 hydrase assay, hCA XII
Experimental: as §1

[1] = Table 1, saccharin-based derivatives, recombinant enzyme, 15 min preincubation, pH 7.5

Sequence of hCA XII (O43570 25-354): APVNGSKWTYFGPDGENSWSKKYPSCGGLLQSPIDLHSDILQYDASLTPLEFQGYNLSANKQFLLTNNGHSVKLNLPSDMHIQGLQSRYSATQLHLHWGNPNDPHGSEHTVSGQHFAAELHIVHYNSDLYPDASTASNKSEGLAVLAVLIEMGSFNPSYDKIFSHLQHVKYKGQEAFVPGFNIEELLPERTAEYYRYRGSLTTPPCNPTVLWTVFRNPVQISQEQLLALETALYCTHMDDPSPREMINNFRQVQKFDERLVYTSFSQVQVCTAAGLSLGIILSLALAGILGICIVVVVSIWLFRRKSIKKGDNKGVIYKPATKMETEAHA
Sequence of hCA I (P00915 whole entry): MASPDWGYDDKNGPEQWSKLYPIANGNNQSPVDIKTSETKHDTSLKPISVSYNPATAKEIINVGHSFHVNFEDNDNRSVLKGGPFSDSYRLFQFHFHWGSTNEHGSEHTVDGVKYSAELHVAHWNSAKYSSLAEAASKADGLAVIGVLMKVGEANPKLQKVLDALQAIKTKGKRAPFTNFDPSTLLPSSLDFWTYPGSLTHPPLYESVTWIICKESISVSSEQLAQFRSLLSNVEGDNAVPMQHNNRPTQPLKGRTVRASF

Row | Compound | Ki (hCA I) | Ki (hCA I; [1]) | Ki (hCA II) | Ki (hCA II; [1]) | Ki (hCA IX) | Ki (hCA IX; [1]) | Ki (hCA XII) | inhibitory activity against hCA I, in words (hCA I) | inhibitory activity against hCA II, in words (hCA II) | Ki (hCA XII; [1])
1 | CC(C)=CCN1C(=O)c2ccccc2S1(=O)=O [Compound 1] | > 1000 µM | > 1000 µM | > 1000 µM | > 1000 µM | 0.39 µM | 0.39 µM | 0.23 µM |  |  | 
2 | O=C1c2ccccc2S(=O)(=O)N1Cc1ccccc1Cl [Compound 2] |  | > 1000 µM |  | > 1000 µM |  | 0.3 µM | 0.22 µM | ineffective | ineffective | 
3 | O=C1c2ccccc2S(=O)(=O)N1Cc1cccc(Cl)c1 [Compound 3] |  | > 1000 µM |  | > 1000 µM | 0.3 µM | 0.1 µM | 1.3 µM | ineffective | ineffective | 
4 | O=C(CN1C(=O)c2ccccc2S1(=O)=O)c1cccc([N+](=O)[O-])c1 [Compound 4] |  | > 1000 µM |  | > 1000 µM | > 1000 µM | > 1000 µM | 0.41 µM | ineffective | ineffective | 
5 | COC(=O)c1ccccc1S(=O)(=O)Nc1ccccc1 [Compound 5] |  | > 1000 µM |  | > 1000 µM |  | 59.6 µM |  |  |  | > 1000 µM
6 | COC(=O)c1ccccc1S(=O)(=O)Nc1ccc(F)cc1 [Compound 6] |  | > 1000 µM |  | > 1000 µM |  | 262 µM |  |  |  | > 1000 µM
7 | COC(=O)c1ccccc1S(=O)(=O)Nc1ccccc1Cl [Compound 7] |  | > 1000 µM |  | > 1000 µM |  | 428 µM |  |  |  | > 1000 µM
8 | COC(=O)c1ccccc1S(=O)(=O)Nc1ccc(Cl)cc1 [Compound 8] |  | > 1000 µM |  | > 1000 µM |  | 955 µM |  |  |  | > 1000 µM
9 | COC(=O)c1ccccc1S(=O)(=O)Nc1ccc(Br)cc1 [Compound 9] |  | > 1000 µM |  | 689 µM |  | 6.7 µM |  |  |  | > 1000 µM
10 | COC(=O)c1ccccc1S(=O)(=O)Nc1ccc(C(F)(F)F)cc1 [Compound 10] |  | > 1000 µM |  | > 1000 µM |  | 563 µM |  |  |  | > 1000 µM
11 | COC(=O)c1ccccc1S(=O)(=O)Nc1cccc([N+](=O)[O-])c1 [Compound 11] |  | > 1000 µM |  | > 1000 µM |  | > 1000 µM |  |  |  | > 1000 µM
12 | COC(=O)c1ccccc1S(=O)(=O)Nc1ccc([N+](=O)[O-])cc1 [Compound 12] |  | > 1000 µM |  | > 1000 µM |  | 62.8 µM |  |  |  | > 1000 µM
13 | COC(=O)c1ccccc1S(=O)(=O)Nc1ccc(C)cc1 [Compound 13] |  | > 1000 µM |  | > 1000 µM |  | 68.2 µM |  |  |  | > 1000 µM
14 | COC(=O)c1ccccc1S(=O)(=O)Nc1c(C)cccc1C [Compound 14] |  | > 1000 µM |  | > 1000 µM |  | 39.7 µM |  |  |  | > 1000 µM
15 | COC(=O)c1ccccc1S(=O)(=O)Nc1ccc(C(C)C)cc1 [Compound 15] |  | > 1000 µM |  | > 1000 µM |  | 57.6 µM |  |  |  | > 1000 µM
16 | COC(=O)c1ccccc1S(=O)(=O)Nc1ccc(OC)cc1 [Compound 16] |  | > 1000 µM |  | > 1000 µM |  | 93.3 µM |  |  |  | > 1000 µM
17 | O=C(O)c1ccccc1S(=O)(=O)Nc1ccccc1 [Compound 17] |  | > 1000 µM |  | > 1000 µM |  | 46.5 µM |  |  |  | > 1000 µM
18 | O=C(O)c1ccccc1S(=O)(=O)Nc1ccc(F)cc1 [Compound 18] |  | > 1000 µM |  | > 1000 µM |  | 45.8 µM |  |  |  | > 1000 µM
19 | O=C(O)c1ccccc1S(=O)(=O)Nc1ccccc1Cl [Compound 19] |  | > 1000 µM |  | > 1000 µM |  | > 1000 µM |  |  |  | > 1000 µM
20 | O=C(O)c1ccccc1S(=O)(=O)Nc1ccc(Cl)cc1 [Compound 20] |  | > 1000 µM |  | > 1000 µM |  | > 1000 µM |  |  |  | > 1000 µM

Row | Compound | Ki (hCA I) | Ki (hCA I; [1]) | Ki (hCA II) | Ki (hCA II; [1]) | Ki (hCA IX) | Ki (hCA IX; [1]) | Ki (hCA XII) | inhibitory activity against hCA I, in words (hCA I) | inhibitory activity against hCA II, in words (hCA II) | Ki (hCA XII; [1])
21 | O=C(O)c1ccccc1S(=O)(=O)Nc1ccc(Br)cc1 [Compound 21] |  | > 1000 µM |  | > 1000 µM |  | 72.8 µM |  |  |  | > 1000 µM
22 | O=C(O)c1ccccc1S(=O)(=O)Nc1ccc(C(F)(F)F)cc1 [Compound 22] |  | > 1000 µM |  | > 1000 µM |  | 84.8 µM |  |  |  | > 1000 µM
23 | O=C(O)c1ccccc1S(=O)(=O)Nc1cccc([N+](=O)[O-])c1 [Compound 23] |  | > 1000 µM |  | > 1000 µM |  | > 1000 µM |  |  |  | > 1000 µM
24 | O=C(O)c1ccccc1S(=O)(=O)Nc1ccc([N+](=O)[O-])cc1 [Compound 24] |  | > 1000 µM | 66.9 µM |  | 0.24 µM | 0.24 µM |  |  |  | > 1000 µM
25 | Cc1ccc(NS(=O)(=O)c2ccccc2C(=O)O)cc1 [Compound 25] |  | > 1000 µM |  | > 1000 µM |  | > 1000 µM |  |  |  | > 1000 µM
26 | Cc1cccc(C)c1NS(=O)(=O)c1ccccc1C(=O)O [Compound 26] |  | > 1000 µM |  | > 1000 µM |  | > 1000 µM |  |  |  | > 1000 µM
27 | CC(C)c1ccc(NS(=O)(=O)c2ccccc2C(=O)O)cc1 [Compound 27] |  | > 1000 µM |  | > 1000 µM |  | > 1000 µM |  |  |  | > 1000 µM
28 | COc1ccc(NS(=O)(=O)c2ccccc2C(=O)O)cc1 [Compound 28] |  | > 1000 µM |  | > 1000 µM |  | > 1000 µM |  |  |  | > 1000 µM
29 | O=C1c2ccccc2S(=O)(=O)N1c1ccccc1 [Compound 29] |  | > 1000 µM |  | > 1000 µM |  | > 1000 µM |  |  |  | > 1000 µM
30 | O=C1c2ccccc2S(=O)(=O)N1c1ccc(F)cc1 [Compound 30] |  | > 1000 µM |  | > 1000 µM |  | > 1000 µM |  |  |  | > 1000 µM
31 | O=C1c2ccccc2S(=O)(=O)N1c1ccccc1Cl [Compound 31] |  | > 1000 µM | 478 µM |  |  | 640 µM |  |  |  | > 1000 µM
32 | O=C1c2ccccc2S(=O)(=O)N1c1ccc(Cl)cc1 [Compound 32] |  | > 1000 µM |  | > 1000 µM |  | > 1000 µM |  |  |  | > 1000 µM
33 | O=C1c2ccccc2S(=O)(=O)N1c1ccc(Br)cc1 [Compound 33] |  | > 1000 µM |  | > 1000 µM |  | 869 µM |  |  |  | > 1000 µM
34 | O=C1c2ccccc2S(=O)(=O)N1c1ccc(C(F)(F)F)cc1 [Compound 34] |  | > 1000 µM |  | > 1000 µM |  | > 1000 µM |  |  |  | > 1000 µM
35 | O=C1c2ccccc2S(=O)(=O)N1c1cccc([N+](=O)[O-])c1 [Compound 35] |  | > 1000 µM |  | > 1000 µM |  | > 1000 µM |  |  |  | > 1000 µM
36 | O=C1c2ccccc2S(=O)(=O)N1c1ccc([N+](=O)[O-])cc1 [Compound 36] |  | > 1000 µM |  | > 1000 µM | 443 µM | 444 µM |  |  |  | > 1000 µM
37 | Cc1ccc(N2C(=O)c3ccccc3S2(=O)=O)cc1 [Compound 37] |  | > 1000 µM |  | > 1000 µM |  | > 1000 µM |  |  |  | > 1000 µM
38 | Cc1cccc(C)c1N1C(=O)c2ccccc2S1(=O)=O [Compound 38] |  | > 1000 µM |  | > 1000 µM |  | > 1000 µM |  |  |  | > 1000 µM
39 | CC(C)c1ccc(N2C(=O)c3ccccc3S2(=O)=O)cc1 [Compound 39] |  | > 1000 µM |  | > 1000 µM |  | > 1000 µM |  |  |  | > 1000 µM
40 | COc1ccc(N2C(=O)c3ccccc3S2(=O)=O)cc1 [Compound 40] |  | > 1000 µM |  | > 1000 µM |  | > 1000 µM |  |  |  | > 1000 µM
